The record followed here is BindingDB's records for doi:10.1007/s00044-010-9334-1 (n/a, 2011).

A short description of the assay: Inhibition of microtubule polymerisation in Rattus norvegicus (rat) A10 cells.

In turn, `COc1cc(OC)c(C2C=C(c3cc(OC)ccc3OC)NC(=S)N2)c(OC)c1` (configuration not stated) returned an EC50 of 2.9 µM. That is a single-digit micromolar value.
Then `COc1ccc(C2C=C(c3cc(OC)c(OC)c(OC)c3)NC(=S)N2)cc1O` (configuration not stated), with 4.4 µM.
